Measurements: US20240376151A1, “STAPLED PEPTIDES AND METHODS THEREOF” (FOG PHARMACEUTICALS, INC., priority 2022, published 2024)
Read-outs that look alike come from different tables or passages of the source. Values belong to the compound of their own block, whether it stands above or below them. Numbered stars: 1 amine (or outer) side, 2 acyl side, 3 side chain; on linkers, the order of the positions; unused ones are H or OH. Bridge positions count the residues as written; N and C are the ends. Peptide text beside a SMILES is read from it. Phenylene(1,4-NHCOCH2)2 = O=C(C[*:1])Nc1ccc(NC(=O)C[*:2])cc1

What was measured:
beta-catenin = target: T1, beta-catenin (Homo sapiens, UniProt P35222); experiment: KD (μM, SPR)
T1 construct: 10 nM full-length β-catenin (Uniprot ID P35222); 6×His-thrombin-T7-TEV (N); made in house; host or cells: E. coli BL21 (DE3) pLysS

β-catenin:MDM4 complex = target: T2, β-catenin:MDM4 complex (Homo sapiens, UniProt O15151+P35222, C17S); experiment: FP analysis of the β-catenin:MDM4 complex; format: biochemical; conditions: direct FP assay
T2 construct: 6×His-yBBr-TEV (N); 6×His-yBBr-3C (N, cleaved yes); made in house; host or cells: E. coli BL21 (DE3) pLysS (beta-catenin); E. coli BL21 (DE3) (MDM4)
T2 sequence (P35222 134-665): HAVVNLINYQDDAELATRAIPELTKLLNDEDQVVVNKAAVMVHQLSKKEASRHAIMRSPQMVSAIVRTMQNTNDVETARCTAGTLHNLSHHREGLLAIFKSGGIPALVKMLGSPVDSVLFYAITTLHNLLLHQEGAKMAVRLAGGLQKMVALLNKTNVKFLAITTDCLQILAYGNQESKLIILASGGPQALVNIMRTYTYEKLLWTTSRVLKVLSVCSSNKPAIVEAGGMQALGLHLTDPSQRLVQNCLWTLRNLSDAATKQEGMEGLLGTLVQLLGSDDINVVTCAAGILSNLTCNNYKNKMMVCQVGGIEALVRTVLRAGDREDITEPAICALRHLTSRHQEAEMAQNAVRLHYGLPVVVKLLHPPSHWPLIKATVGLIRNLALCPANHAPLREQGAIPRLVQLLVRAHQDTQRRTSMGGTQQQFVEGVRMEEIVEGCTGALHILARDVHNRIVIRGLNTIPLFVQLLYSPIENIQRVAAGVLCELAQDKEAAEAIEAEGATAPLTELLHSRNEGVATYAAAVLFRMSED
T2 sequence (O15151 14-111 C17S): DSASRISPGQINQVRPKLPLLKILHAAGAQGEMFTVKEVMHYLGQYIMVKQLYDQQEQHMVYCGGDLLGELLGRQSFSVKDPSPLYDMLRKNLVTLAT

β-catenin:MDM2 complex = target: T3, β-catenin:MDM2 complex (Homo sapiens, UniProt P35222+Q00987); experiment: FP analysis of the β-catenin:MDM2 complex; format: biochemical; conditions: read-out: EC50 of cooperative interaction between MDM2 and the Armadillo domain of β-catenin
T3 construct: 6×His-yBBr-TEV (N); 6×His-TEV (N, cleaved yes); made in house; host or cells: E. coli BL21 (DE3) pLysS (beta-catenin); E. coli BL21 (DE3) (MDM2)

MDM4 = target: T4, MDM4 (Homo sapiens, UniProt O15151, C17S); experiment: Direct FP ternary complex formation, fluorescent MDM4 and beta-catenin; format: biochemical; conditions: fluorescent p53-binding domain of MDM4
T4 construct: 6×His-yBBr-3C (N, cleaved yes); made in house; host or cells: E. coli BL21 (DE3)
T4 sequence (O15151 14-111 C17S): T2 sequence (O15151 14-111 C17S)

MDM2 and β-catenin = target: T5, MDM2 and β-catenin (Homo sapiens, UniProt P35222+Q00987); experiment: Direct FP ternary complex formation, fluorescent MDM2 and beta-catenin; format: biochemical; conditions: fluorescent p53-binding domain of MDM2
T5 construct: 6×His-TEV (N, cleaved yes); 6×His-yBBr-TEV (N); made in house; host or cells: E. coli BL21 (DE3) (MDM2); E. coli BL21 (DE3) pLysS (β-catenin)

Expi293 cells [1] = experiment: CellTiter-Glo cell health (ATP levels) during cell association assay; format: cell-based; conditions: reflective of cell health, luminescence Tfinal (22 hours) / Tinitial
Expi293 cells [2] = experiment: Measurement of the Cell Association of Helicons (mass spectrometry quantification in cells after treatment and wash); format: cell-based; conditions: percentage of Helicons in cells after treatment and wash, 22 hours, n = 2, mean ± SD
Method: All samples were analyzed using mass spectrometry.

PD-L1 = PD-L1 (Homo sapiens, UniProt Q9NZQ7)
Sequence of PD-L1 (Q9NZQ7 18-239): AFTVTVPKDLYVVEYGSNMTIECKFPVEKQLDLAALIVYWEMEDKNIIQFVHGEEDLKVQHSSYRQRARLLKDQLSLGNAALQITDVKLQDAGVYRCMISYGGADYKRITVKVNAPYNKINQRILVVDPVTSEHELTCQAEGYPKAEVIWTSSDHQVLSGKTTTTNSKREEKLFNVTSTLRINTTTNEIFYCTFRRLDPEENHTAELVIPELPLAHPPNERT

T1 sequence (P35222 2-781 limits assumed): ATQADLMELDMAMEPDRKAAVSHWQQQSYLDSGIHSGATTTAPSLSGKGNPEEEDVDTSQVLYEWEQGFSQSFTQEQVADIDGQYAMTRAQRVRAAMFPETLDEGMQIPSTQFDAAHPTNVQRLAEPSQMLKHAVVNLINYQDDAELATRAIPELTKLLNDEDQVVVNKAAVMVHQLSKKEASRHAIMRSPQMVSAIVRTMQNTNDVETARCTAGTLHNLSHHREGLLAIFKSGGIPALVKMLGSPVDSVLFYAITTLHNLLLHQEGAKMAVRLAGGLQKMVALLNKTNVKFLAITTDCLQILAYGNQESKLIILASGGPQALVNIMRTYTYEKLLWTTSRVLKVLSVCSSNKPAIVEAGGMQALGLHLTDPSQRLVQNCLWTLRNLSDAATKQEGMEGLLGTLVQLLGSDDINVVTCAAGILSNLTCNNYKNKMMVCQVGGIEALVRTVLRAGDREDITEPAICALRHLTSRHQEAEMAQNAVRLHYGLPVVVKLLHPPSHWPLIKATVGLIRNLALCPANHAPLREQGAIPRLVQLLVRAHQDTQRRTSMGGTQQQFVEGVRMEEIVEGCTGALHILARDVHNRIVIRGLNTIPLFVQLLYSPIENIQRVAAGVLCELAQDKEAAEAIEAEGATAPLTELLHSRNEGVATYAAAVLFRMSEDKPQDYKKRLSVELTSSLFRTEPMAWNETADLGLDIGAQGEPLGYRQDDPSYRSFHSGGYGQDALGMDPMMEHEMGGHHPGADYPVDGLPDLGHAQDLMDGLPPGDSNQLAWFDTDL
T3 sequence (Q00987 17-111 limits assumed, one chain of several): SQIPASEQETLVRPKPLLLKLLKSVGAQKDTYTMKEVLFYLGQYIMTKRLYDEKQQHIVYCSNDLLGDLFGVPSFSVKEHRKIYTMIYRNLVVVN
T5 sequence (Q00987 17-111 limits assumed, one chain of several): as above

Kd (beta-catenin): 1.4 ± 0.55 µM
Compound: CC(=O)N[C@@H](CC(=O)O)C(=O)N1CCC[C@H]1C(=O)N[C@@H](C)C(=O)N[C@@H](C)C(=O)N[C@@H](Cc1c[nH]cn1)C(=O)N[C@@H](CCCNC(=N)N)C(=O)N[C@H]1CSCC(=O)Nc2ccc(cc2)NC(=O)CSC[C@@H](C(=O)N[C@@H](CCC(=O)O)C(=O)N[C@@H](CC(C)C)C(=O)N[C@H](C(N)=O)C(C)C)NC(=O)[C@H](Cc2c[nH]cn2)NC(=O)[C@H](CC(C)C)NC(=O)[C@H](C)NC(=O)[C@H](C)NC(=O)[C@H](Cc2c[nH]c3ccccc23)NC(=O)[C@H](CCC(=O)O)NC1=O [FP49250] (Ac-DPAAHRCEWAALHCELV-NH2; linker 7-14 via Phenylene(1,4-NHCOCH2)2)

Kd (beta-catenin): 0.4 ± 0.05 µM
Compound: CC(=O)N[C@@H](CC(=O)O)C(=O)N1CCC[C@H]1C(=O)N[C@@H](C)C(=O)N[C@H](C(=O)N[C@@H](C)C(=O)N[C@@H](CCCNC(=N)N)C(=O)N[C@H]1CSCC(=O)Nc2ccc(cc2)NC(=O)CSC[C@@H](C(=O)N[C@@H](CCC(=O)O)C(=O)N[C@@H](CC(C)C)C(=O)N[C@H](C(N)=O)C(C)C)NC(=O)[C@H](Cc2c[nH]cn2)NC(=O)[C@H](CC(C)C)NC(=O)[C@H](C)NC(=O)[C@H](C)NC(=O)[C@H](Cc2c[nH]c3ccccc23)NC(=O)[C@H](CCC(=O)O)NC1=O)[C@@H](C)O [FP49251] (Ac-DPATARCEWAALHCELV-NH2; linker 7-14 via Phenylene(1,4-NHCOCH2)2)

Kd (beta-catenin): 0.3 ± 0.1 µM
Compound: CC(=O)N[C@@H](CC(=O)O)C(=O)N1CCC[C@H]1C(=O)N[C@@H](C)C(=O)N[C@H](C(=O)N[C@@H](Cc1c[nH]cn1)C(=O)N[C@@H](C)C(=O)N[C@H]1CSCC(=O)Nc2ccc(cc2)NC(=O)CSC[C@@H](C(=O)N[C@@H](CCC(=O)O)C(=O)N[C@@H](CC(C)C)C(=O)N[C@H](C(N)=O)C(C)C)NC(=O)[C@H](Cc2c[nH]cn2)NC(=O)[C@H](CC(C)C)NC(=O)[C@H](C)NC(=O)[C@H](C)NC(=O)[C@H](Cc2c[nH]c3ccccc23)NC(=O)[C@H](CCC(=O)O)NC1=O)[C@@H](C)O [FP49252] (Ac-DPATHACEWAALHCELV-NH2; linker 7-14 via Phenylene(1,4-NHCOCH2)2)

Compound: CC[C@H](C)[C@H](NC(=O)[C@H](C)NC(=O)[C@H](CCC(N)=O)NC(=O)[C@H](CCC(N)=O)NC(=O)[C@H](CCC(=O)O)NC(=O)[C@H](CCSC)NC(=O)[C@@H]1CCCN1C(C)=O)C(=O)N[C@H]1CSCC(=O)Nc2ccc(cc2)NC(=O)CSC[C@@H](C(=O)N[C@@H](CC(C)C)C(=O)N[C@@H](C)C(=O)N[C@@H](CC(=O)O)C(=O)N[C@@H](CC(=O)O)C(=O)N[C@@H](Cc2c[nH]c3ccccc23)C(=O)N[C@H](C(N)=O)[C@@H](C)O)NC(=O)[C@H](CCSC)NC(=O)[C@H](Cc2c[nH]c3ccccc23)NC(=O)[C@H](C)NC(=O)[C@H](C)NC(=O)[C@H](CCC(N)=O)NC(=O)[C@H](Cc2ccccc2)NC1=O [Helicon H329] (Ac-PMEQQAICFQAAWMCLADDWT-NH2; linker 8-15 via Phenylene(1,4-NHCOCH2)2)
promotion of interaction between MDM4 and β-catenin (β-catenin:MDM4 complex): not between MDM4 and β-catenin
EC50 (β-catenin:MDM2 complex): 10 to 100 nM

Compound: CC(=O)N1CCC[C@H]1C(=O)N[C@@H](Cc1c[nH]c2ccccc12)C(=O)N[C@@H](CCCCN)C(=O)N[C@@H](Cc1ccc(O)cc1)C(=O)N[C@@H](CCC(=O)O)C(=O)N[C@@H](CCC(N)=O)C(=O)N[C@H](C(=O)N[C@H]1CSCC(=O)Nc2ccc(cc2)NC(=O)CSC[C@@H](C(=O)N[C@@H](CC(C)C)C(=O)N[C@@H](CO)C(=O)N[C@@H](CC(=O)O)C(=O)N[C@@H](CC(=O)O)C(=O)N[C@@H](Cc2c[nH]c3ccccc23)C(=O)N[C@@H](CC(=O)O)C(N)=O)NC(=O)[C@H](CCC(N)=O)NC(=O)[C@H](Cc2c[nH]c3ccccc23)NC(=O)[C@H](C)NC(=O)[C@H](C)NC(=O)[C@H](CCC(N)=O)NC(=O)[C@H](Cc2ccc(O)cc2)NC1=O)C(C)C [Helicon H330]
ternary complex formation with MDM4 (MDM4): did not occur

Compound: CC[C@H](C)[C@H](NC(=O)[C@H](C)NC(=O)[C@H](CCC(N)=O)NC(C)=O)C(=O)N[C@H]1CSCC(=O)Nc2ccc(cc2)NC(=O)CSC[C@@H](C(=O)N[C@@H](CC(C)C)C(=O)N[C@@H](C)C(=O)N[C@@H](CC(=O)O)C(=O)N[C@@H](CC(=O)O)C(=O)N[C@@H](Cc2c[nH]c3ccccc23)C(=O)N[C@H](C(N)=O)[C@@H](C)O)NC(=O)[C@H](CCSC)NC(=O)[C@H](Cc2c[nH]c3ccccc23)NC(=O)[C@H](C)NC(=O)[C@H](C)NC(=O)[C@H](CCC(N)=O)NC(=O)[C@H](Cc2ccccc2)NC1=O [Helicon H331]
promotion of interaction between MDM4 and β-catenin (β-catenin:MDM4 complex): not between MDM4 and β-catenin

Compound: CC[C@H](C)[C@H](NC(=O)[C@@H]1CSCC(=O)Nc2ccc(cc2)NC(=O)CSC[C@H](NC(=O)[C@H](CC(=O)O)NC(=O)[C@H](CC(N)=O)NC(=O)[C@H](C)NC(=O)[C@H](C)NC(=O)[C@H](CO)NC(=O)[C@@H](NC(=O)[C@@H]2CCCN2C(C)=O)[C@@H](C)CC)C(=O)N[C@@H](Cc2ccccc2)C(=O)N[C@@H](CCCCN)C(=O)N[C@@H](C)C(=O)N[C@@H](C)C(=O)N[C@@H](Cc2c[nH]c3ccccc23)C(=O)N[C@@H](CCC(N)=O)C(=O)N1)C(=O)N[C@H](C(=O)N[C@@H](Cc1c[nH]c2ccccc12)C(=O)N[C@@H](CC(C)C)C(=O)N[C@@H](Cc1c[nH]cn1)C(=O)N[C@@H](CCC(N)=O)C(N)=O)[C@@H](C)CC [Helicon H332]
promotion of interaction between MDM4 and β-catenin (β-catenin:MDM4 complex): not between MDM4 and β-catenin
EC50 (β-catenin:MDM2 complex): 10 to 100 nM
ternary complex formation with MDM4 (MDM4): did not occur
ternary complex formation, MDM2 and β-catenin (MDM2 and β-catenin): could promote ternary complex formation

Compound: CC[C@H](C)[C@H](NC(=O)[C@H](Cc1ccccc1)NC(=O)[C@H](Cc1ccc(O)cc1)NC(=O)[C@H](CC(C)C)NC(=O)[C@@H]1CSCC(=O)Nc2ccc(cc2)NC(=O)CSC[C@H](NC(=O)[C@H](CC(=O)O)NC(=O)[C@H](CCCNC(=N)N)NC(=O)[C@H](C)NC(=O)[C@H](CC(N)=O)NC(=O)[C@H](CCC(=O)O)NC(=O)[C@H](CO)NC(=O)[C@@H]2CCCN2C(C)=O)C(=O)N[C@@H](Cc2ccccc2)C(=O)N[C@@H](Cc2c[nH]c3ccccc23)C(=O)N[C@@H](C)C(=O)N[C@@H](C)C(=O)N[C@@H](Cc2c[nH]c3ccccc23)C(=O)N[C@@H](CC(=O)O)C(=O)N1)C(=O)N[C@@H](Cc1ccc(O)cc1)C(=O)N[C@@H](CCC(N)=O)C(N)=O [Helicon H333]
promotion of interaction between MDM4 and β-catenin (β-catenin:MDM4 complex): not between MDM4 and β-catenin

Compound: Ac-[5FAM]-Lys-Gln-Ser-Gln-Gln-Thr-Phe-R8-Asn-Leu-Trp-Arg-Leu-Leu-S5-Gln-Asn-NH2 (KQSQQTFXNLWRLLXQN; Ac, 5FAM, R8-S5 staple, C-terminal amide; SITE 1 Acetylated 5-Carboxyfluorescein modified residue; SITE 8 (R)-2-amino-2-methyldec-9-enoic acid, useful for stapling/stapled with another amino acid residue comprising an olefin group to form a staple through the olefin group; SITE 15 (S)-2-amino-2-methylhept-6-enoic acid, useful for stapling/stapled with another amino acid residue comprising an olefin group to form a staple through the olefi) [FP47839, reference compound]
CellTiter-Glo fold change ± SD (Expi293 cells [1]): 1.3 ± 0.01
Helicon in cells ± SD (%) (Expi293 cells [2]): 2.1 ± 0.1%

phage screen counts, Target Concentration 10 (PD-L1; PD-L1, target concentration 10): 0
phage screen counts, Target Concentration 30 (PD-L1; PD-L1, target concentration 30): 0
phage screen counts, Target Concentration 100 (PD-L1; PD-L1, target concentration 100): 12
phage screen counts, Target Concentration 300 (PD-L1; PD-L1, target concentration 300): 47
phage screen counts, Target Concentration 1000 (PD-L1; PD-L1, target concentration 1000, first column): 60
phage screen counts, Target Concentration 1000 (PD-L1; PD-L1, target concentration 1000, second column): 62
Compound: DPAAADCQWAAFLCRVY
